The results in this text go back to patent US20260070928A1, “NOVEL CRYSTALLINE FORMS OF (S)-7-OXA-2-AZA-SPIRO[4.5]DECANE-2-CARBOXYLIC ACID [7-(3,6-DIHYDRO-2H-PYRAN-4-YL)-4-METHOXY-THIAZOLO[4,5-C]PYRIDIN-2-YL]-AMIDE AND CO-CRYSTAL FORMS THEREOF” (Domain Therapeutics S.A., priority 2022, published 2026).

Data set [1] is described as follows: water vapour sorption isotherm (25° C.), DVS intrinsic system; hygroscopicity according to Ph. Eur. 5.11. The conditions noted are these: for water uptake levels (water vapour sorption): 25° C. The format is physicochemical. The text has this:
The amorphous state can be classified as hygroscopic according to Ph. […] The water vapour sorption isotherm was acquired on a DVS intrinsic system from SMS.
Eur. criteria (section 5.11.).
The water vapour sorption isotherm was acquired on a DVS Intrinsic system from SMS.
(§1) The mono fumaric acid co-crystal form A1 is characterised by the following physical properties: • 1 eq. […] The DSC scan of mono fumaric acid co-crystal form A1 was acquired on a Mettler-Toledo DSC1 with a heating rate of 5 K/min, using nitrogen purge gas at 50 mL/min. […] Eur. criteria (section 5.11.). […] The water vapour sorption isotherm was acquired on a DVS intrinsic system from SMS. • The concentration levels of the mono fumaric acid co-crystal form A1 were determined at 37° C. after 15 min and 30 min in non-sink-dissolution experiments.
(§2) The hemi fumaric acid co-crystal form A2 is characterised by the following physical properties: • 0.5 eq. […] The DSC scan of the hemi fumaric acid co-crystal form A2 was acquired on a Mettler-Toledo DSC1 with a heating rate of 5 K/min, using nitrogen purge gas at 50 mL/min. […] Eur. Criteria (section 5.11.). […] The water vapour sorption isotherm was acquired on a DVS intrinsic system from SMS. • The concentration levels of the hemi fumaric acid co-crystal form A2 were determined at 37° C. after 15 min and 30 min in non-sink-dissolution experiments.

Data set [2] is described as follows: non-sink dissolution experiments in biorelevant media at 37° C. The format is physicochemical. The conditions noted are these: for Dissolution levels after 15 min / Dissolution levels after 30 min: 37° C., non-sink dissolution; for dissolution behaviour in biorelevant intestinal milieu (FaSSIF) compared to crystalline entities of the free compound: comparison in words. The method, then:
as §1, §2

Setting [3] is: full relative humidity range 0-98% RH.

Take `COc1ncc(C2=CCOCC2)c2sc(NC(=O)N3CC[C@@]4(CCCOC4)C3)nc12` [crystalline anhydrous form A1, (S)-7-Oxa-2-aza-spiro[4,5]decane-2-carboxylic acid [7-(3,6-dihydro2H-pyran-4-yl)-4-methoxy-thiazolo[4,5-c]pyridin-2-yl]-amide]: the “hygroscopicity classification according to Ph. Eur. criteria (section 5.11.)” value (from here on “hygroscopicity classification according”) in data set [1] (25° C. water vapour sorption) is given as “Slightly hygroscopic”; in data set [1] (25° C. water vapour sorption, listed as A1 form) it was “slightly hygroscopic”. In data set [1], the “tendency to undergo hydrate formation upon exposure to elevated RH levels” value (from here on “tendency”) is listed as “no tendency to undergo hydrate formation”. Besides, the “water uptake levels (water vapour sorption)” value (shortened to “water uptake levels”) in data set [1] (full relative humidity range 0-98% RH, listed as A1 form) is listed as < 1 % (w/w).

Take `COc1ncc(C2=CCOCC2)c2sc(NC(=O)N3CC[C@@]4(CCCOC4)C3)nc12` [amorphous state, (S)-7-Oxa-2-aza-spiro[4,5]decane-2-carboxylic acid [7-(3,6-dihydro2H-pyran-4-yl)-4-methoxy-thiazolo[4,5-c]pyridin-2-yl]-amide]: in data set [1] (25° C. water vapour sorption), the “humidity level at which tendencies for deliquescence are shown” value was > 90 % RH and the “hygroscopicity classification according” value is recorded as “hygroscopic”. In data set [1] (setting [3]), the “water uptake levels” value is > 22 % (w/w).

Take `COc1ncc(C2=CCOCC2)c2sc(NC(=O)N3CC[C@@]4(CCCOC4)C3)nc12` [mono 3-hydroxybenzoic acid co-crystal form NF1] [(S)-7-Oxa-2-aza-spiro[4,5]decane-2-carboxylic acid [7-(3,6-dihydro2H-pyran-4-yl)-4-methoxy-thiazolo[4,5-c]pyridin-2-yl]-amide]: the “hygroscopicity classification according” value in data set [1] (25° C. water vapour sorption) is reported as “Not hygroscopic”. In addition, the “tendency” value in data set [1] is on record as “no tendency to undergo hydrate formation”.

As to `COc1ncc(C2=CCOCC2)c2sc(NC(=O)N3CC[C@@]4(CCCOC4)C3)nc12` [hemi fumaric acid co-crystal form A2, (S)-7-Oxa-2-aza-spiro[4,5]decane-2-carboxylic acid [7-(3,6-dihydro2H-pyran-4-yl)-4-methoxy-thiazolo[4,5-c]pyridin-2-yl]-amide], the “Dissolution levels after 15 min” value in data set [2] (FaSSIF [pH 6.5]) is 317 µg/mL; in data set [2] (FeSSIF [pH 5.0]), 651 µg/mL; in data set [2] (SGF [pH 1.2]), 206 µg/mL. Moreover, the “Dissolution levels after 30 min” value in data set [2] (FaSSIF [pH 6.5]) was determined as 492 µg/mL; in data set [2] (FeSSIF [pH 5.0]) it was 899 µg/mL; in data set [2] (SGF [pH 1.2]) it was 292 µg/mL. Also, the “dissolution behaviour in biorelevant intestinal milieu (FaSSIF) compared to crystalline entities of the free compound” value in data set [2] is listed as “improved dissolution behaviour”. In addition, the “hygroscopicity classification according” value in data set [1] (25° C. water vapour sorption) is “slightly hygroscopic”. Besides, the “water uptake levels” value in data set [1] (relative humidity range 0-80% RH) is on record as ≤ 0.7 % (w/w).

Regarding `COc1ncc(C2=CCOCC2)c2sc(NC(=O)N3CC[C@@]4(CCCOC4)C3)nc12` [mono fumaric acid co-crystal form A1, (S)-7-Oxa-2-aza-spiro[4,5]decane-2-carboxylic acid [7-(3,6-dihydro2H-pyran-4-yl)-4-methoxy-thiazolo[4,5-c]pyridin-2-yl]-amide], the “Dissolution levels after 15 min” value in data set [2] (FaSSIF [pH 6.5]) stood at 278 µg/mL; in data set [2] (FeSSIF [pH 5.0]) it was 375 µg/mL; in data set [2] (SGF [pH 1.2]), 331 µg/mL. Further, the figures for the “Dissolution levels after 30 min” value in data set [2] (FaSSIF [pH 6.5]), in data set [2] (FeSSIF [pH 5.0]) and in data set [2] (SGF [pH 1.2]) were 360 µg/mL, 462 µg/mL and 385 µg/mL, respectively. In addition, the “dissolution behaviour in biorelevant intestinal milieu (FaSSIF) compared to crystalline entities of the free compound” value in data set [2] is “improved dissolution behaviour”. Besides, the “hygroscopicity classification according” value in data set [1] (25° C. water vapour sorption) is on record as “Slightly hygroscopic”. Also, in data set [1], the “tendency” value is recorded as “no tendency to undergo hydrate formation”. In addition, the “water uptake levels” value in data set [1] (setting [3]) was < 3 % (w/w).

`COc1ncc(C2=CCOCC2)c2sc(NC(=O)N3CC[C@@]4(CCCOC4)C3)nc12` [hemi tartaric acid co-crystal form NF2, (S)-7-Oxa-2-aza-spiro[4,5]decane-2-carboxylic acid [7-(3,6-dihydro2H-pyran-4-yl)-4-methoxy-thiazolo[4,5-c]pyridin-2-yl]-amide]: the “Dissolution levels after 30 min” value in data set [2] (FaSSIF [pH 6.5]) is reported as “approx. 145 μg/mL”.
